For the compound `CN(c1ccc(Oc2ccc3cc(C(=O)N4CCN(Cc5ccc(OC(F)F)cc5)CC4)n(C)c3c2)nc1)S(=O)(=O)c1ccc(Cl)c(Cl)c1` [Example 515, 3,4-Dichloro-N-(6-{2-[4-(4-difluoromethoxybenzyl)piperazine-1-carbonyl]-1-methyl-1H-indol-6-yloxy}pyridin-3-yl)-N-methyl-benzenesulfonamide], the melting point was in the range of 143.4 to 147.2 °C.
In the case of `CC(C)CCOc1ccc(CN2CCN(C(=O)c3cc4ccc(Oc5ccc(N(C)S(=O)(=O)c6ccc(Cl)c(Cl)c6)cn5)cc4n3C)CC2)cc1` [Example 516, 3,4-Dichloro-N-methyl-N-[6-(1-methyl-2-{4-[4-(3-methylbutoxy)-benzyl]piperazine-1-carbonyl}-1H-indol-6-yloxy)pyridin-3-yl]-benzenesulfonamide], the melting point was 145.9 to 147.1 °C.
In the case of `CC(C)Oc1ccc(CN2CCN(C(=O)c3cc4ccc(Oc5ccc(N(C)S(=O)(=O)c6ccc(Cl)c(Cl)c6)cn5)cc4n3C)CC2)cn1` [Example 517, 3,4-Dichloro-N-(6-{2-[4-(6-isopropoxypyridin-3-ylmethyl)-piperazine-1-carbonyl]-1-methyl-1H-indol-6-yloxy}pyridin-3-yl)-N-methylbenzenesulfonamide] it was 179.1 to 179.7 °C.
For `Cc1ccc(S(=O)(=O)N(C)c2ccc(Oc3ccc4cc(C(=O)N5CCN(Cc6ccc(OC(CF)CF)cc6)CC5)n(C)c4c3)nc2)cc1` [Example 523, N-[6-(2-{4-[4-(2-Fluoro-1-fluoromethylethoxy)benzyl]piperazine-1-carbonyl}-1-methyl-1H-indol-6-yloxy)pyridin-3-yl]-4,N-dimethyl-benzenesulfonamide], the melting point was 116.5 to 116.6 °C.
`Cc1ccc(S(=O)(=O)N(C)c2ccc(Oc3ccc4cc(C(=O)N5CCN(Cc6ccc(OCC(F)F)cc6)CC5)n(C)c4c3)nc2)cc1` [Example 524, N-[6-(2-{4-[4-(2,2-Difluoroethoxy)benzyl]piperazine-1-carbonyl}-1-methyl-1H-indol-6-yloxy)pyridin-3-yl]-4,N-dimethylbenzene-sulfonamide] registered a melting point of 121.9 to 122.5 °C.
In the case of `CN(c1ccc(Oc2ccc3c(c2)cc(C(=O)N2CCN(Cc4ccc(OCC(F)(F)F)cc4)CC2)n3C)nc1)S(=O)(=O)c1ccc(C(F)(F)F)cc1` [Example 527, N-Methyl-N-[6-(1-methyl-2-{4-[4-(2,2,2-trifluoroethoxy)benzyl]-piperazine-1-carbonyl}-1H-indol-5-yloxy)pyridin-3-yl]-4-tri-fluoromethylbenzenesulfonamide] it was 191.8 to 194.4 °C; in that of `CN(c1ccc(Oc2ccc3c(c2)cc(C(=O)N2CCN(Cc4ccc(OCC(F)(F)F)cc4)CC2)n3C)nc1)S(=O)(=O)c1ccc(Cl)c(Cl)c1` [Example 528, 3,4-Dichloro-N-methyl-N-[6-(1-methyl-2-{4-[4-(2,2,2-trifluoro-ethoxy)benzyl]piperazine-1-carbonyl}-1H-indol-5-yloxy)pyridin-3-yl]benzenesulfonamide], 174.8 to 175.8 °C.
Compound `Cc1ccc(S(=O)(=O)N(C)c2ccc(Oc3ccc4cc(C(=O)N5CCN(Cc6ccc(OCC7CC7)cc6)CC5)n(C)c4c3)nc2)cc1` [Example 530, N-(6-{2-[4-(4-Cyclopropylmethoxybenzyl)piperazine-1-carbonyl]-1-methyl-1H-indol-6-yloxy}pyridin-3-yl)-4,N-dimethylbenzene-sulfonamide] had a melting point of 135.6 to 138.6 °C.
`Cc1ccc(S(=O)(=O)N(C)c2ccc(Oc3ccc4cc(C(=O)N5CCN(Cc6ccc(OCCF)cc6)CC5)n(C)c4c3)nc2)cc1` [Example 531, N-[6-(2-{4-[4-(2-Fluoroethoxy)benzyl]piperazine-1-carbonyl}-1-methyl-1H-indol-6-yloxy)pyridin-3-yl]-4,N-dimethylbenzene-sulfonamide] gave a melting point of 138.7 to 139.8 °C.
For `Br.Cc1ccc(S(=O)(=O)N(C)c2ccc(Oc3ccc4cc(C(=O)N5CCN(Cc6ccc(OC(F)F)cc6)CC5)n(C)c4c3)nc2)cc1` [Example 532, N-(6-{2-[4-(4-Difluoromethoxybenzyl)piperazine-1-carbonyl]-1-methyl-1H-indol-6-yloxy}pyridin-3-yl)-4,N-dimethylbenzene-sulfonamide hydrobromide], the melting point was 214.5 to 218.5 °C (dec.).
Under `Br.Cc1ccc(S(=O)(=O)N(C)c2ccc(Oc3ccc4cc(C(=O)N5CCN(Cc6ccc(OCCC(C)C)cc6)CC5)n(C)c4c3)nc2)cc1` [Example 533, 4,N-Dimethyl-N-[6-(1-methyl-2-{4-[4-(3-methylbutoxy)benzyl]-piperazine-1-carbonyl}-1H-indol-6-yloxy)pyridin-3-yl]benzene-sulfonamide hydrobromide] stands 236.5 to 238.3 °C (dec.); under `Cc1ccc(S(=O)(=O)N(C)c2ccc(Oc3ccc4cc(C(=O)N5CCN(Cc6ccc(OC(C)C)nc6)CC5)n(C)c4c3)nc2)cc1` [Example 534, N-(6-{2-[4-(6-Isopropoxypyridin-3-ylmethyl)piperazine-1-carbonyl]-1-methyl-1H-indol-6-yloxy}pyridin-3-yl)-4,N-dimethyl-benzenesulfonamide], 131.1 to 132.8 °C; under `Br.Cn1c(C(=O)N2CCN(Cc3ccc(OC(CF)CF)cc3)CC2)cc2ccc(Oc3ccc(NC(=O)c4ccc(C(F)(F)F)cc4Cl)cn3)cc21` [Example 537, 2-Chloro-N-[6-(2-{4-[4-(2-fluoro-1-fluoromethylethoxy)benzyl]-piperazine-1-carbonyl}-1-methyl-1H-indol-6-yloxy)pyridin-3-yl]-4-trifluoromethylbenzamide hydrobromide], 239.8 to 240.8 °C.
`Br.Br.CN(C(=O)c1ccc(C(F)(F)F)cc1)c1ccc(Oc2ccc3c(c2)cc(C(=O)N2CCN(Cc4ccncc4)CC2)n3C)nc1` [Example 548, N-Methyl-N-{6-[1-methyl-2-(4-pyridin-4-ylmethylpiperazine-1-carbonyl)-1H-indol-5-yloxy]pyridin-3-yl}-4-trifluoromethyl-benzamide dihydrobromide] came in with a melting point of 196 to 198 °C.
Under `Br.CN(C(=O)c1ccc(C(F)(F)F)cc1)c1ccc(Oc2ccc3c(c2)cc(C(=O)N2CCN(Cc4ccc(F)cc4)CC2)n3C)nc1` [Example 549, N-(6-{2-[4-(4-Fluorobenzyl)piperazine-1-carbonyl]-1-methyl-1H-indol-5-yloxy}pyridin-3-yl)-N-methyl-4-trifluoromethylbenzamide hydrobromide] stands 218 to 220 °C; under `Br.Br.Cn1c(C(=O)N2CCN(Cc3ccncc3)CC2)cc2cc(Oc3ccc(NC(=O)c4ccc(C(F)(F)F)cc4)cn3)ccc21` [Example 550, N-{6-[1-Methyl-2-(4-pyridin-4-ylmethylpiperazine-1-carbonyl)-1H-indol-5-yloxy]pyridin-3-yl}-4-trifluoromethylbenzamide dihydrobromide], 211 to 215 °C (dec.).
As to `Br.Cn1c(C(=O)N2CCN(Cc3ccc(F)cc3)CC2)cc2cc(Oc3ccc(NC(=O)c4ccc(C(F)(F)F)cc4)cn3)ccc21` [Example 551, N-(6-{2-[4-(4-Fluorobenzyl)piperazine-1-carbonyl]-1-methyl-1H-indol-5-yloxy}pyridin-3-yl)-4-trifluoromethylbenzamide hydrobromide], the melting point was in the range of 254 to 257 °C.
On to `Cn1c(C(=O)N2CCN(Cc3ccc(C#N)cc3)CC2)cc2cc(Oc3ccc(NC(=O)c4ccc(C(F)(F)F)cc4)cn3)ccc21.O=C(O)/C=C\C(=O)O` [Example 552, N-(6-{2-[4-(4-Cyanobenzyl)piperazine-1-carbonyl]-1-methyl-1H-indol-5-yloxy}pyridin-3-yl)-4-trifluoromethylbenzamide maleate], for which the melting point was 149 to 152 °C.
Turning to `Br.CN(C(=O)c1ccc(C(F)(F)F)cc1)c1ccc(Oc2ccc3c(c2)cc(C(=O)N2CCN(Cc4ccc(C(F)(F)F)cc4)CC2)n3C)nc1` [Example 553, N-Methyl-N-(6-{1-methyl-2-[4-(4-trifluoromethylbenzyl)piperazine-1-carbonyl]-1H-indol-5-yloxy}pyridin-3-yl)-4-trifluoromethyl-benzamide hydrobromide], the melting point is 254 to 260 °C (dec.).
With `Br.Br.CN(C(=O)c1ccc(Cl)c(Cl)c1)c1ccc(Oc2ccc3c(c2)cc(C(=O)N2CCN(Cc4ccncc4)CC2)n3C)nc1` [Example 554, 3,4-Dichloro-N-methyl-N-{6-[1-methyl-2-(4-pyridin-4-ylmethyl-piperazine-1-carbonyl)-1H-indol-5-yloxy]pyridin-3-yl}benzamide dihydrobromide], the melting point was 204 to 208 °C (dec.).
As for `Br.Br.Cn1c(C(=O)N2CCN(Cc3ccncc3)CC2)cc2cc(Oc3ccc(NC(=O)c4ccc(Cl)c(Cl)c4)cn3)ccc21` [Example 555, 3,4-Dichloro-N-{6-[1-methyl-2-(4-pyridin-4-ylmethylpiperazine-1-carbonyl)-1H-indol-5-yloxy]pyridin-3-yl}benzamide dihydrobromide], the melting point is 214 to 219 °C (dec.).
For the compound `Br.Cn1c(C(=O)N2CCN(Cc3ccc(C#N)cc3)CC2)cc2cc(Oc3ccc(NC(=O)c4ccc(Cl)c(Cl)c4)cn3)ccc21` [Example 556, 3,4-Dichloro-N-(6-{2-[4-(4-cyanobenzyl)piperazine-1-carbonyl]-1-methyl-1H-indol-5-yloxy}pyridin-3-yl)benzamide hydrobromide], the melting point was 267 to 272 °C (dec.).
`Br.Br.Cn1c(C(=O)N2CCN(Cc3cccnc3)CC2)cc2cc(Oc3ccc(NC(=O)c4ccc(C(F)(F)F)cc4)cn3)ccc21` [Example 558, N-{6-[1-Methyl-2-(4-pyridin-3-ylmethylpiperazine-1-carbonyl)-1H-indol-5-yloxy]pyridin-3-yl}-4-trifluoromethylbenzamide dihydrobromide] registered a melting point of 201 to 204 °C.
The compound `Br.Br.CN(C(=O)c1ccc(C(F)(F)F)cc1)c1ccc(Oc2ccc3c(c2)cc(C(=O)N2CCN(Cc4cccnc4)CC2)n3C)nc1` [Example 559, N-Methyl-N-{6-[1-methyl-2-(4-pyridin-3-ylmethylpiperazine-1-carbonyl)-1H-indol-5-yloxy]pyridin-3-yl}-4-trifluoromethyl-benzamide dihydrobromide] registered a melting point of 191 to 193 °C.

The values are drawn from patent publication US8551999B2, “Heterocyclic compound and pharmaceutical composition thereof” (Otsuka Pharmaceutical Co., Ltd., priority 2007, dated 2013).
